Experimental data reported in patent publication US9023810B2, “Use of a compound comprising D-mannoheptulose and/or perseitol for treating and preventing innate immunity modification diseases” (Laboratories Expanscience, priority 2004, dated 2015).
Values joined by “and” are separate entries in the source; they are usually repeats but may differ in a detail not shown here. Equal values may be shown once.

Key:
hBD-2 [1] = test: Induction of hBD-2 in normal human keratinocytes, ELISA on cells related to MTT (Examples 3, 6, 7); format: cell-based; details: for production of hBD-2 (in words): Example 7, tested separately, commercial origin; for Modulation of the synthesis of HBD-2 (% increase with respect to control cells): proportions corresponding to 1% of a 5% solution of MS of batch A, i.e. 0.05% MS
Method: The keratinocytes of normal humans were inoculated in a 96 well plaque (about 20000 cells/well), in the presence of a specific medium enriched in calcium (final concentration 1.3 mM), as previously described in the publication “Human β-Defensin-2 production in Keratinocytes is regulated by Interleukin-1, Bacteria, and the State of Differentiation”, Alice Y. Liu et al., The Society for Investigative Dermatology, vol. 118, No. 2, February 2002, pages 275 to 281.
After an incubation of 24 hours at 37° C., 5% CO2: • 2 rinses with 200 μl/well of PBS (phosphate buffer in saline solution) • stimulation of the cells by 200 μl/well (in a Ca^++ supplemented medium): • by the hydrosoluble extract of sugars of avocado at concentrations of 0.5, 0.05 and 0.005 w/w of dry matter • by IL-1β at a concentration of 100 ng/ml (positive control of induction of hBD-2) III. End of Treatment (J2): ELISA
After 24 hours of incubation, the induction of the hBD-2 was evaluated by an ELISA method with a specific antibody (goat polyclonal to human BD2; Abcam; ab9871). The results obtained with the hydrosoluble extract of sugars of avocado, batch A, comprising 40% of D-mannoheptulose and 40% perseitol, based on the dry weight, are summarised in Table 8 below:
The same test as in example 3 was carried out with: • a mixture of fructose (5%), glucose (5%) and saccharose (3%); • D-mannoheptulose (40%); • perseitol (40%); • a mixture of fructose (5%), glucose (5%) saccharose (3%) and D-mannoheptulose (40%); • a mixture of fructose (5%), glucose (5%) saccharose (3%) and perseitol (40%); • a mixture of fructose (5%), glucose (5%) saccharose (3%) D-mannoheptulose (40%) and perseitol (40%); and • an extract of avocado sugars (batch A).
The same test as in example 3 was carried out with commercially available D-mannoheptulose and perseitol.

hBD-2 [2] = test: Expression of hBD-2 modulated by IL-4 in keratinocytes, in vitro modelling of atopic dermatitis; format: cell-based, human
Method: The keratinocytes of normal humans were inoculated as described in example 3.
After 24 hours of incubation at 37° C., 5% of CO2, the culture medium was eliminated and the cellular carpet was rinsed twice with PBS. The cells were then treated for 24 hours under the conditions defined below: • Control cells: medium only • IL-1β at 100 ng/ml (positive control for induction of hBD-2) • IL-4 at 50 ng/ml • Hydrosoluble extract of sugars of avocado (batch A) at 0.5% w/w of dry matter • IL-1β at 100 ng/ml and IL-4 at 50 ng/ml • IL-4 at 50 ng/ml and hydrosoluble extract of sugars of avocado (batch A) at 0.05% w/w of dry matter • IL-1β at 100 ng/ml and IL-4 at 50 ng/ml and hydrosoluble extract of sugars of avocado (batch A) at 0.05% w/w of dry matter
At the end of the treatment, the induction of hBD-2 was evaluated by an ELISA method on cells; in parallel, in order to determine the total number of cells in each well, a test with MTT was run in parallel on the cells treated under the same conditions. Thus, for each condition, the OD450 hBD-2 was divided by the OD570 MTT to obtain the quantity of hBD-2 produced per living cell.

[3] = tested on: tumorous cells of Ehrlich ascites sarcoma; details: perseitol associated with a potassium ion; cited from earlier work
hBD-2 [4] = test: Induction of hBD-2 in KB epithelial cells, ELISA on cells related to MTT; format: cell-based, human; details: 48 hours, 100 ng/ml
Method: (§1) The cells KB (ATCC CCL-17), line of epithelial cells from a human oral carcinoma, commonly used in studies of the buccal cavity, were inoculated in plaques of 96 wells and cultivated in RPMI 1640 (Roswell Park Memorial Institute Medium) with Glutamax™1 at 10% VFS (veal fœtal serum)+antibiotics.
(§2) After 24 hours of incubation, the culture medium was eliminated and the cellular carpet was rinsed twice with PBS.
(§3) The cells were then treated under the conditions defined above during 24 and 48 hours: • Control cells: medium only • TNFα (commercialised by Sigma) at 100 ng/ml • hydrosoluble extract of sugars of avocado (40% mannoheptulose/40% perseitol) at 0.005-0.05 and 0.5 w/w (of dry matter) (batch A) 3. End of Treatment • Analysis of the antimicrobial peptides by ELISA on cells
After 48 hours of incubation under the different treatment conditions, the β-defensins 2 and 3 and the LL-present in the cells KB were analysed by an ELISA method on cells. […]
(§4) For each condition of treatment, the OD450 AMPs (antimicrobial peptides) was divided by the OD570 MTT to calculate the quantity of AMPs produced per living cell.
(§5) The averages and the standard deviations were calculated for each condition and the induction of different AMPS was calculated as the percentage increase with respect to the control cells.

hBD-3 = test: Induction of hBD-3 in KB epithelial cells, ELISA on cells related to MTT; format: cell-based, human; details: 48 hours, 100 ng/ml
Method: as §1, §2, §3
(§6) After 48 hours of incubation under the different treatment conditions, the β-defensins 2 and 3 and the LL-present in the cells KB were analysed by an ELISA method on cells.
(§7) In order to determine the total number of cells in each well, a test with MTT was run in parallel on the cells treated under the same conditions. • Utilisation of the results
as §4, §5

LL-37 = test: Induction of LL-37 in KB epithelial cells, ELISA on cells related to MTT; format: cell-based, human; details: 48 hours, 100 ng/ml
Method: as §1, §2, §3, §6, §7, §4, §5

[5] = Example 7, commercial origin, 0.0012%
[6] = Example 7, commercial origin, 0.012%

## IL-1β: positive control of induction of hBD-2, 100 ng/ml
hBD-2 [1]; Example 7, positive control
  Average (hBD-2, same test as in example 3): 0.104
hBD-2 [1]; keratinocytes, 24 h, 100 ng/ml
  % increase vs. control: 128%
  hBD-2/MTT (single values): 0.223 OD and 0.324 OD and 0.273 OD and 0.322 OD
hBD-2 [2]; 24 hours, IL-1β 100 ng/ml
  hBD-2/MTT (single values): 0.291 OD and 0.308 OD and 0.347 OD
hBD-2 [2]; IL-1β 100 ng/ml
  increase in the synthesis of hBD-2 with respect to the control cells: 80%

## OCC(O)C(O)C(O)C(O)C(O)CO (stereo not drawn) [Perseitol]
hBD-2 [1]; [5]
  Average (hBD-2, same test as in example 3): 0.063
hBD-2 [1]; [6]
  Average (hBD-2, same test as in example 3): 0.090
hBD-2 [1]
  production of hBD-2 (in words): capable of inducing the production of hBD-2
  Modulation of the synthesis of HBD-2 (% increase with respect to control cells): 12%
[3]
  incorporation of leucine-3H into tumorous cells (in words): enables leucine-3H to be incorporated

## IL-4: interleukine-4, mediator of atopy, 50 ng/ml
hBD-2 [2]; 24 hours, IL-4 50 ng/ml
  hBD-2/MTT (single values): 0.160 OD and 0.158 OD and 0.163 OD
  hBD-2/MTT Average: 0.160 +/− 0.002 OD
hBD-2 [2]; IL-4 50 ng/ml with IL-1β 100 ng/ml
  inhibition of the synthesis of hBD-2 induced by IL-1β: 32%
hBD-2 [2]; IL-4 alone, 50 ng/ml
  influence on the quantity of hBD-2 expressed by the keratinocytes (in words): no influence

## O=C(CO)[C@@H](O)[C@@H](O)[C@H](O)[C@H](O)CO [D-mannoheptulose]
hBD-2 [1]; Example 6, sugars in the proportions of batch A
  effect on the synthesis of HBD-2 (in words): more active than the perseitol
hBD-2 [1]; [5]
  Average (hBD-2, same test as in example 3): 0.089
hBD-2 [1]; [6]
  Average (hBD-2, same test as in example 3): 0.089
hBD-2 [1]
  production of hBD-2 (in words): capable of inducing the production of hBD-2
  Modulation of the synthesis of HBD-2 (% increase with respect to control cells): 31%

## TNFα
hBD-2 [4]
  Induction of HBD-2 % increase: 239%
  OD hBD2/OD MTT average: 0.037
hBD-3
  Induction of HBD-3 % increase: 30%
  OD hBD3/OD MTT (wells): 0.431 and 0.448 and 0.399 and 0.407 and 0.374
  OD hBD3/OD MTT average: 0.410
LL-37
  Induction of LL-37 % increase: 88%
  OD LL-37/OD MTT (wells): 0.080 and 0.072 and 0.077 and 0.091 and 0.082 and 0.076
  OD LL-37/OD MTT average: 0.080
